Measured values published in patent publication US20250332112A1, “IONIZABLE CATIONIC LIPIDS FOR LIPID NANOPARTICLES” (GENEVANT SCIENCES GMBH, priority 2022, published 2025).
Each block holds one compound with its values, some of them ahead of it.

Key:
[1] = Particle characteristics of LNPs containing luciferase mRNA and novel ionizable lipids; type: physicochemical
Protocol: The lipid solution contains 4 components: a PEG-conjugated lipid, an ionizable lipid, cholesterol, and a phospholipid (e.g., DSPC). Lipid stocks were prepared using the lipid identities and molar ratios as described, to achieve a total concentration of ˜7 mg/mL in 100% ethanol. Firefly luciferase mRNA (TriLink Biotechnologies, L-7202) or ornithine transcarbamylase (OTC) mRNA (TriLink Biotechnologies, custom designed) was diluted in acetate, pH 5 buffer and nuclease free water to achieve a target concentration of 0.366 mg/mL mRNA in 100 mM acetate, pH 5. Equal volumes of the lipid and nucleic acid solutions were blended at a flow rate of 400 mL/min through a T-connector, and diluted with ˜4 volumes of PBS, pH 7.4. Formulations were placed in Slide-A-Lyzer dialysis units (MWCO 10,000) and dialyzed overnight against 10 mM Tris, 500 mM NaCl, pH 8 buffer. Following dialysis, the formulations were concentrated to ˜0.6 mg/mL using VivaSpin concentrator units (MWCO 100,000) and dialyzed overnight against 5 mM Tris, 10% sucrose, pH 8 buffer. Formulations were filtered through a 0.2 μm syringe filter (PES membrane). Nucleic acid concentration was determined by the RiboGreen assay. Particle size and polydispersity were determined using a Malvern Nano Series Zetasizer.
LNP formulations containing novel ionizable lipids all produced stable particles with high encapsulation efficiency (Tables 1-7).

[2] = test system: luciferase activity in the liver; experiment: Luciferase activity in liver after intravenous luciferase mRNA LNP; type: in vivo; conditions: 0.5 mg/kg IV, 6 h post-IV administration, BALB/c mice (n = 4)
Protocol: Frozen aliquots of liver were thawed and homogenized in 1 mL of 1×CCLR (Cell Culture Lysis Reagent) using a FastPrep® homogenizer. The homogenate was then centrifuged at 16,000 RPM for 10 minutes at 4° C. Twenty (20) μL of the supernatant was loaded into a 96-well white plate and luminescence measured following addition of luciferase reagent (Promega Luciferase Assay System). Luciferase activity was determined by comparing luminescence of the homogenized samples to luciferase protein standards. To account for any quenching of luminescence by components in the liver homogenate, luciferase was added to the liver homogenates of untreated animals and the resulting luminescence measured. The resulting quench factor was applied to all samples to obtain the corrected luciferase activity, and normalized per unit mass of tissue analyzed.

[3] = Table 5, luciferase mRNA LNP 1.6:54.6:32.8:10.9
[4] = Table 2, luciferase mRNA LNP 1.6:54.6:32.8:10.9
[5] = Table 4, luciferase mRNA LNP 1.6:54.6:32.8:10.9
[6] = Table 1, luciferase mRNA LNP 1.6:54.6:32.8:10.9

Final Product % EE [1, 3]: 99%
Final Product PDI [1, 3]: 0.04
Final Product Z-avg [1, 3]: 77 nm
SMILES: CCCCCCCCCCC(CCCCCCC(=O)OCC(CCCCCC)CCCCCCCC)N(CCCCCCCCCC)C(=O)CCCN(C)C (stereo not drawn) [Compound 1, 2-Hexyldecyl 8-(N-decyl-4-(dimethylamino)butanamido)-octadecanoate]
Luc Activity ([2]; Table 12): 1.70E+08 pg/g liver

Final Product % EE [1, 3]: 96%
Final Product PDI [1, 3]: 0.08
Final Product Z-avg [1, 3]: 81 nm
SMILES: CCCCCCCCCCC(CCCCC(=O)OCC(CCCCCC)CCCCCCCC)N(CCCCCCCCCC)C(=O)CCCN(C)C (stereo not drawn) [Compound 2, 2-Hexyldecyl 6-(N-decyl-4-(dimethylamino)butanamido)hexadecanoate]
Luc Activity ([2]; Table 12): 7.11E+07 pg/g liver

Final Product % EE [1, 4]: 98%
Final Product PDI [1, 4]: (0.03)
Final Product Z-avg [1, 4]: 77 nm
SMILES: CCCCCCCCCC(CC(=O)OCC(CCCCCC)CCCCCCCC)N(CCCN(C)C)C(=O)CCCCC(=O)OCC(CCCC)CCCCCC (stereo not drawn) [Compound 21, 2-hexyldecyl 3-{6-[(2-butyloctyl)oxy]-N-[3-(dimethylamino)propyl]-6-oxohexanamido}dodecanoate]
Luc Activity ([2]; Table 9): 4.58E+07 pg/g liver

Final Product % EE [1, 4]: 98%
Final Product PDI [1, 4]: (0.04)
Final Product Z-avg [1, 4]: 74 nm
SMILES: CCCCCCCCCC(CC(=O)OCC(CCCCCC)CCCCCCCC)N(CCCN(C)C)C(=O)CCCCCCC(=O)OCC(CCCC)CCCCCC (stereo not drawn) [Compound 22, 2-Hexyldecyl 3-(8-((2-butyloctyl)oxy)-N-(3-(dimethylamino)propyl)-8-oxooctanamido)-dodecanoate]
Luc Activity ([2]; Table 9): 4.71E+07 pg/g liver

Final Product % EE [1, 4]: 99%
Final Product PDI [1, 4]: (0.03)
Final Product Z-avg [1, 4]: 78 nm
SMILES: CCCCCCCCCCC(CCCC(=O)OCC(CCCCCC)CCCCCCCC)N(CCCN(C)C)C(=O)CCCCCCC(=O)OCC(CCCC)CCCCCC (stereo not drawn) [Compound 25, 2-Hexyldecyl 5-(8-((2-butyloctyl)oxy)-N-(3-(dimethylamino)propyl)-8-oxooctanamido)-pentadecanoate]
Luc Activity ([2]; Table 9): 7.76E+06 pg/g liver

Final Product % EE [1, 5]: 98%
Final Product PDI [1, 5]: 0.04
Final Product Z-avg [1, 5]: 86 nm
SMILES: CCCCCCCCCCC(CCCCCC(=O)OCCCCC(CCCCCCCC)CCCCCCCC)N(CCCN(C)C)C(=O)CCCCCCC(=O)OC(CC)CCCCCCCC (stereo not drawn) [Compound 27, 5-Octyltridecyl 7-(N-(3-(dimethylamino)propyl)-8-oxo-8-(undecan-3-yloxy)octanamido)-heptadecanoate]
Luc Activity ([2]; Table 11): 9.17E+06 pg/g liver

Final Product % EE [1, 5]: 95%
Final Product PDI [1, 5]: 0.20
Final Product Z-avg [1, 5]: 90 nm
SMILES: CCCCCCCCCCC(CCCCCC(=O)OCCCCC(CCCCCCCC)CCCCCCCC)N(CCN(C)C)C(=O)CCCCCCC(=O)OC(CC)CCCCCCCC (stereo not drawn) [Compound 28, 5-Octyltridecyl 7-(N-(2-(dimethylamino)ethyl)-8-oxo-8-(undecan-3-yloxy)octanamido)-heptadecanoate]
Luc Activity ([2]; Table 11): 6.50E+06 pg/g liver

Final Product % EE [1, 3]: 98%
Final Product PDI [1, 3]: 0.02
Final Product Z-avg [1, 3]: 80 nm
SMILES: CCCCCCCCCCC(CCCCCC(=O)OCC(CCCCCC)CCCCCCCC)N(CCCN(C)C)C(=O)CCCCCCC(=O)OCC(CCCC)CCCCCC (stereo not drawn) [Compound 29, 2-Hexyldecyl 7-(8-((2-butyloctyl)oxy)-N-(3-(dimethylamino)propyl)-8-oxooctanamido)-heptadecanoate]
Luc Activity ([2]; Table 12): 6.74E+07 pg/g liver

SMILES: CCCCCCCCCCC(CCCCCCC(=O)OCCC(CCCCC)CCCCC)N(CCCN(C)C)C(=O)CCCCCCC(=O)OCCC(CCCCC)CCCCC (stereo not drawn) [Compound 30]
Luc Activity ([2]; Table 12): 3.76E+07 pg/g liver

SMILES: CCCCCCCCCCC(CCCCCCC(=O)OC(CCCCCCCC)CCCCCCCC)N(CCCN(C)C)C(=O)CCCCCCC(=O)OCCC(CCCCC)CCCCC (stereo not drawn) [Compound 31]
Luc Activity ([2]; Table 12): 1.47E+07 pg/g liver

SMILES: CCCCC/C=C\CCCC(CCC/C=C\CCCCC)CN(C(=O)CCCCN(C)C)C(CCCCCCCCCC)CCCCCCC(=O)OCCCCCCCCCC (stereo not drawn) [Compound 35]
Luc Activity ([2]; Table 11): 1.40E+07 pg/g liver

SMILES: CCCCC/C=C\CCCC(CCC/C=C\CCCCC)CN(C(=O)CCCN(C)C)C(CCCCCCCCCC)CCCCCCC(=O)OCCCCCCCCCC (stereo not drawn) [Compound 36]
Luc Activity ([2]; Table 11): 5.54E+06 pg/g liver

SMILES: CCCCC/C=C\CCCC(CCC/C=C\CCCCC)CN(C(=O)CCN(C)C)C(CCCCCCCCCC)CCCCCCC(=O)OCCCCCCCCCC (stereo not drawn) [Compound 37]
Luc Activity ([2]; Table 11): 3.01E+06 pg/g liver

Final Product % EE [1, 4]: 98%
Final Product PDI [1, 4]: (0.05)
Final Product Z-avg [1, 4]: 87 nm
SMILES: CCCCCCCCCC(=O)N(CCCN(C)C)C(CCCCCCCCC)CCOC(=O)C(F)(CCCCCC)CCCCCCCC (stereo not drawn) [Compound 40, 3-{N-[3-(dimethylamino)propyl]decanamido}dodecyl 2-fluoro-2-hexyldecanoate]
Luc Activity ([2]; Table 9): 3.57E+07 pg/g liver

Final Product % EE [1, 3]: 94%
Final Product PDI [1, 3]: 0.04
Final Product Z-avg [1, 3]: 70 nm
SMILES: CCCCCCCCCCC(CCCCCCC(=O)OCC(CCCCCC)CCCCCCCC)N(OCCCN(C)C)C(=O)CCCCCCC(=O)OCC(CCCC)CCCCCC (stereo not drawn) [Compound 41, 2-hexyldecyl 8-{8-[(2-butyloctyl)oxy]-N-[3-(dimethylamino)propoxy]-8-oxooctanamido}octadecanoate]
Luc Activity ([2]; Table 12): 6.69E+06 pg/g liver

Final Product % EE [1, 3]: 97%
Final Product PDI [1, 3]: 0.10
Final Product Z-avg [1, 3]: 65 nm
SMILES: CCCCCCCCCCC(CCCCCC(=O)OCC(CCCCCC)CCCCCCCC)N(OCCCN(C)C)C(=O)CCCCCCCCC (stereo not drawn) [Compound 42, 2-hexyldecyl 7-{N-[3-(dimethylamino)propoxy]decanamido}heptadecanoate]
Luc Activity ([2]; Table 12): 1.14E+07 pg/g liver

Final Product % EE [1, 3]: 98%
Final Product PDI [1, 3]: 0.06
Final Product Z-avg [1, 3]: 68 nm
SMILES: CCCCCCCCCCON(C(=O)CCCN(C)C)C(CCCCCCCCCC)CCCCCC(=O)OCC(CCCCCC)CCCCCCCC (stereo not drawn) [Compound 44, 2-Hexyldecyl 7-(N-(decyloxy)-4-(dimethylamino)butanamido)heptadecanoate]
Luc Activity ([2]; Table 12): 6.17E+07 pg/g liver

Final Product % EE [1, 6]: 96%
Final Product PDI [1, 6]: 0.04
Final Product Z-avg ([1]; Table 1, luciferase mRNA LNP 1.6:54.6:32.8:10.9 PEG2000-C-DMA:Ionizable lipid:Cholesterol:DSPC): 71 nm
SMILES: CCCCCCCCCC(CC(=O)OCC(CCCCCC)CCCCCCCC)N(CCCN(C)C)S(=O)(=O)CCCCCCCC (stereo not drawn) [Compound 48, 2-hexyldecyl 3-{N-[3-(dimethylamino)propyl]octane-1-sulfonamido}dodecanoate]
Luc Activity ([2]; Table 8): 6.49E+06 pg/g liver

SMILES: CCCCCCCCCCC(CCCCCCC(=O)OCC(CCCCCC)CCCCCCCC)N(CCCCCCCC(=O)OCC(CCCCCC)CCCCCCCC)C(=O)CCCN(C)C (stereo not drawn) [Compound 63]
Luc Activity ([2]; Table 12): 6.23E+07 pg/g liver

SMILES: CCCCCCCCCCC(CCCCCCC(=O)OCC(CCCCCC)CCCCCCCC)N(CCCCCCCC(=O)OCC(CCCCCC)CCCCCCCC)C(=O)CCCCN(C)C (stereo not drawn) [Compound 64]
Luc Activity ([2]; Table 12): 9.76E+07 pg/g liver

SMILES: CCCCCCCCCCC(CCCCCCC(=O)OC(CCCCCCCC)CCCCCCCC)N(CCCCCCCC(=O)OCCC(CCCCC)CCCCC)C(=O)CCCN(C)C (stereo not drawn) [Compound 68]
Luc Activity ([2]; Table 12): 4.36E+07 pg/g liver

SMILES: CCCCCCCCCCC(CCCCCCC(=O)OCC(CCCCCC)CCCCCCCC)N(CCCN(C)C)C(=O)CCCCCCC(=O)OCC(CCCC)CCCCCC (stereo not drawn) [Compound 78]
Luc Activity ([2]; Table 11): 5.30E+07 pg/g liver

SMILES: CCCCCCCCCCOC(=O)CCCCCCC(=O)N(CCCN(C)C)C(CCCCCCCCCC)CCCCCCC(=O)OCC(CCCCCC)CCCCCCCC (stereo not drawn) [Compound 79]
Luc Activity ([2]; Table 11): 1.05E+07 pg/g liver

SMILES: CCCCCCCCCCC(CCCCCCC(=O)OCC(CCCCCC)CCCCCCCC)N(CCCN(C)C)C(=O)CCCCCCCC(=O)OCC(CCCC)CCCCCC (stereo not drawn) [Compound 80]
Luc Activity ([2]; Table 12): 3.28E+07 pg/g liver

SMILES: CCCCCCCCCCC(CCCCCCC(=O)OCC(CCCCCC)CCCCCCCC)N(CCCN(C)C)C(=O)CCCCCCCCC(=O)OCC(CCCC)CCCCCC (stereo not drawn) [Compound 81]
Luc Activity ([2]; Table 12): 3.47E+07 pg/g liver

SMILES: CCCCCCCCCCC(CCCCCCC(=O)OCC(CCCCCC)CCCCCCCC)N(CCCN(C)C)C(=O)CCCCCCC(=O)OCCC(CCCCC)CCCCC (stereo not drawn) [Compound 82]
Luc Activity ([2]; Table 12): 1.23E+07 pg/g liver

SMILES: CCCCCCCCCCC(CCCCCCC(=O)OCC(CCCCCC)CCCCCCCC)N(CCCN(C)C)C(=O)CCCCCCC(=O)OCc1cc(CCCCCC)cc(CCCCCC)c1 (stereo not drawn) [Compound 83]
Luc Activity ([2]; Table 12): 4.59E+07 pg/g liver
